From ChEMBL document CHEMBL4190382, “Targeting lysine specific demethylase 4A (KDM4A) tandem TUDOR domain - A fragment based approach” (Bioorg Med Chem Lett, 2018)
Residue numbers refer to the chain shown, from its start. Calls of active or inactive are those of the source. The rule behind the calls is not given here.

How the values were obtained:
[1] = target: T1, Lysine-specific demethylase 4A (Homo sapiens, UniProt O75164); experiment: Binding affinity to thrombin cleavable N-terminal 6His tagged and 13C-IVLM labeled human KDM4A tandem TUDOR domain (897 to 1011 residues) expressed in Escherichia coli BL21(DE3)-T1R by ITC method
T1 sequence (O75164 whole entry): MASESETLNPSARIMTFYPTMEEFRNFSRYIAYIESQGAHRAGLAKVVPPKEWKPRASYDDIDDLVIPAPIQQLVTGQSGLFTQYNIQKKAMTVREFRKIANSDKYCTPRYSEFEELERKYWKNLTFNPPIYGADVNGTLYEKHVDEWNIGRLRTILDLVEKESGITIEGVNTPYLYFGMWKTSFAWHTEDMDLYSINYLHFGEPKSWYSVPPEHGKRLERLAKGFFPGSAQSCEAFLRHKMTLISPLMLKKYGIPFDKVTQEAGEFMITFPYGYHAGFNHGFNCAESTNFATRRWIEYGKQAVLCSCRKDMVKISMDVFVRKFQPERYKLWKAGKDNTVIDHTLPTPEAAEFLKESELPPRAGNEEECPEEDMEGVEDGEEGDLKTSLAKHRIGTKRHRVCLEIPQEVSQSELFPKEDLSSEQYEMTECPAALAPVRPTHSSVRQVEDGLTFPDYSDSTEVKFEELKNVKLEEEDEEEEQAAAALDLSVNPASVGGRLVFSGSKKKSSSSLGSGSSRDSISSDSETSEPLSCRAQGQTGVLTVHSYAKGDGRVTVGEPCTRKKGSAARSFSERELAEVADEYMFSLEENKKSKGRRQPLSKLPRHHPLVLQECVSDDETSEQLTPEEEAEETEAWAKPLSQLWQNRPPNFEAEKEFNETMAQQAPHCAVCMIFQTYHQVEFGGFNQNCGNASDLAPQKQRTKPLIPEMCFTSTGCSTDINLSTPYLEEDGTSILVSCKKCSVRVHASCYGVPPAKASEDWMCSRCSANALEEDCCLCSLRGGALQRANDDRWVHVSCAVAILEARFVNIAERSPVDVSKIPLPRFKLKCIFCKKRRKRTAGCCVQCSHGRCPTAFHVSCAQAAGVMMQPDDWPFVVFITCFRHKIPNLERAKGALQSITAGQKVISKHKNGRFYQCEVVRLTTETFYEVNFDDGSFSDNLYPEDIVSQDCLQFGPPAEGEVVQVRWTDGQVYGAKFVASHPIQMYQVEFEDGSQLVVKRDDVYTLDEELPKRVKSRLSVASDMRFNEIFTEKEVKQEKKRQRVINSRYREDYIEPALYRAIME

[2] = test system: T2, Lysine-specific demethylase 4A (Homo sapiens), O75164 [F932A]; experiment: Binding affinity to thrombin cleavable N-terminal 6His tagged and 13C-IVLM labeled human KDM4A tandem TUDOR domain (897 to 1011 residues) F932A mutant expressed in Escherichia coli BL21(DE3)-T1R by ITC method
T2 sequence (whole entry): T1 sequence (O75164 whole entry) with F932A

Kd [1]: 81.7 µM
Activity [2]: inactive
Compound: CN(C)C[C@H]1C2CCC(c3ccccc3)(C2)[C@H]1O (some centres not stated)
